From patent US20250325684A1, “POTENT ANTI-CANCER CYCLOTIDES” (University of Southern California, priority 2022, published 2025)
“Also recorded” adds a separate entry of the source. Numbered stars: 1 amine (or outer) side, 2 acyl side, 3 side chain; on linkers, the order of the positions; unused ones are H or OH. Bridge positions count the residues as written; N and C are the ends. Square brackets hold non-standard residues; d marks the D form. Peptide text beside a SMILES is read from it. I, II: the chains in the order shown. X1 = O=C(CCc1cn(CCOCCOCCOCCC(=O)[*:2])nn1)[*:1]; isoGln = NC(=O)[C@H](CCC(=O)[*:2])N[*:1]

What was measured:
MSCLC 494 = test: MTT cell viability, MSCLC 494 cells; format: cell-based; settings: MSCLC 494 murine small cell lung cancer
Description: (§1) Cell viability assay in several human cancer cell lines (See Tables 1 to 10). Cell lines were cultured in RPMI 1640 (or recommended medium when indicated) medium supplemented with 10% fetal calf serum, penicillin (50 IU/mL) and streptomycin ([…]) at 37° C. in 5% CO2. Cell viability studies was carried using the MTT (3-(4,5-dimethylthiazol-2-yl)-2,5-diphenyltetrazolium bromide) assay as previously described (31). Briefly, ≈2×10^3 CRC cells were be seeded in 96-well microtiter plates in 100 μL RPMI 1640 in the presence of 10% calf serum. […] After 1 h, 210 μL/well of full complemented media was added, the cells were grown for 48 h and then treated with 20 μL of a solution of MTT (5 mg/mL) for 2 h. The medium was discarded and DMSO ([…]) was added to each well and incubated with gentle shaking for 20 min at room temperature. The absorbance at 595 nm of the solution is analyzed using a Tecan Genios Multifunctional Microplate Reader (Tecan System Inc) and the background at 670 nm subtracted. RNA-Seq analysis was performed using state-of-the-art bioinformatics tools. Briefly, raw RNA-Seq reads were mapped to human genome (hg38) using STAR aligner (v2.7.3a). Gencode Release 36 reference was used for annotation. Transcript and gene expression levels were quantified using the IsoEM (37) with default parameters. Counts per million (CPM) method is used for normalization. Differential expression was done using DESeq2 with default parameters. Genes involved in different biological pathways (human) were searched from Geneontology (http://geneontology.org/). Bioinformatics results can be validated by using Partek Flow (v10.0.21.0912), a bioinformatics pipeline developed by Zymo Research (https://www.zymoresearch.com/).
(§2) Cell viability was evaluated using the MTT assay as described above.

MV4-11 = test: MTT cell viability, MV4-11 cells; format: cell-based, human; settings: MV4-11 childhood acute monocytic leukemia, p53 WT
Description: as §1, §2

NCl-H69 = test: MTT cell viability, NCl-H69 cells; format: cell-based, human; settings: NCl-H69 lung small cell carcinoma, p53 Mutant
Description: as §1, §2

NCl-H23 = test: MTT cell viability, NCl-H23 cells; format: cell-based, human; settings: NCl-H23 lung adenocarcinoma, p53 Mutant
Description: as §1, §2

CT26 = test: MTT cell viability, CT26 cells; format: cell-based; settings: CT26 murine colon cancer, p53 WT
Description: as §1, with “Counts per million (CPM) method is used for normalization. Differential expression was done using DESeq2 with default parameters. Genes involved in different biological pathways (human) were searched from Geneontology (http://geneontology.org/). Bioinformatics results can be validated by using Partek Flow (v10.0.21.0912), a bioinformatics pipeline developed by Zymo Research (https://www.zymoresearch.com/).” left out
as §2

DLD-1 = test: MTT cell viability, DLD-1 cells; format: cell-based, human; settings: DLD-1 colon adenocarcinoma, p53 Mutant
Description: as §1, with “Counts per million (CPM) method is used for normalization. Differential expression was done using DESeq2 with default parameters. Genes involved in different biological pathways (human) were searched from Geneontology (http://geneontology.org/). Bioinformatics results can be validated by using Partek Flow (v10.0.21.0912), a bioinformatics pipeline developed by Zymo Research (https://www.zymoresearch.com/).” left out
as §2

NCl-A549 = test: MTT cell viability, NCl-A549 cells; format: cell-based, human; settings: NCl-A549 lung adenocarcinoma, p53 WT
Description: as §1, §2

MOLM-13 = test: MTT cell viability, MOLM-13 cells; format: cell-based, human; settings: MOLM-13 adult acute myeloid leukemia, p53 WT
Description: as §1, §2

NCl-H292 = test: MTT cell viability, NCl-H292 cells; format: cell-based, human; settings: NCl-H292 lung mucoepidermoid carcinoma, p53 WT
Description: as §1, with “Counts per million (CPM) method is used for normalization. Differential expression was done using DESeq2 with default parameters. Genes involved in different biological pathways (human) were searched from Geneontology (http://geneontology.org/). Bioinformatics results can be validated by using Partek Flow (v10.0.21.0912), a bioinformatics pipeline developed by Zymo Research (https://www.zymoresearch.com/).” left out
as §2

HCT116^−/− = test: MTT cell viability, HCT116 p53-null cells; format: cell-based, human; settings: HCT116^−/− colon carcinoma, p53 Null; MTT; read-out: EC50
Description: as §1, with “Counts per million (CPM) method is used for normalization. Differential expression was done using DESeq2 with default parameters. Genes involved in different biological pathways (human) were searched from Geneontology (http://geneontology.org/). Bioinformatics results can be validated by using Partek Flow (v10.0.21.0912), a bioinformatics pipeline developed by Zymo Research (https://www.zymoresearch.com/).” left out
as §2

[1] = tested on: p53, FOXO3a, RUNX3, ATF3, DYRK2 and HIPK2 in HCT116 cell lines; test: Stabilization of Hdm2/HdmX E3 ligase substrates in HCT116 cell lines; format: cell-based, human; settings: HCT116 cell lines with p53-wt and -null phenotype; listed as MCo-52-2-cTAT
Description: Stabilization of p53 could be observed just 8 h after treating the cells with the bioactive cyclotide (FIG. 5B), likely indicating the cyclotide crosses the cellular membrane into the cytosol through an endocytic mechanism as previously described for this type of microproteins (30, 31). […] These transcription factors (ATF3, FOXO3a and RUNX3) and kinases (DYRK2 and HIPK2) have been described to be regulated by the E3 ligase activity of Hdm2/HdmX (6). […] In both cases the peptide was able to inhibit tumor growth by 60% (HCT116-nude mice) and 80% (CT26-Balb/c mice) (FIG. 7).

[2] = Toxicity observation in tumor-bearing mice; format: in vivo, mouse; settings: dosed up to 40 mg/kg three times per week
Description: Tumor samples were also subjected to SDS-PAGE and analyzed by western blotting for p53, Hdm2, and p21. GAPDH was used as loading control in western blots.
Mice xenografts studies. HCT116 p53^−/− and CT26 xenografts were established by injecting 100 uL suspension of basal RPMI containing 0.5×10^6 cells into the rear right flanks of female nude mice (nu/nu) mice (HCT116) or Balb/C (CT26). […] Compounds were prepared in a D5W at a final volume of 50 μL (peptide) or 100 μL (Nutlin-3). Health checks were performed daily to observe parameters such as body conditioning score, overall appearance and cleanliness, strength of grip, skin color and tone, mobility, gait and activity level as indicators of potential drug related toxicities. Individual weights were recorded thrice weekly, comparing the control and treatment groups as an additional indicator of tolerance of drug treatment as well as providing the average weight for calculation of drug dosing. Tumor size was measured with calipers. Tumor volume was calculated by measuring tumor size in two dimensions and applying those measurements to the calculation V=d^2×D/2, where d and D equal to the smaller and larger of the two measurements, respectively. Mice bearing tumors larger than 2.4 cm^3 were removed from the study, sacrificed and necropsies performed to gather tumor and organ samples for histological analysis. […]

Row | Compound | EC50 (MSCLC 494) | EC50 (MV4-11) | EC50 (NCl-H69) | EC50 (NCl-H23) | EC50 (CT26) | EC50 (DLD-1) | EC50 (NCl-A549) | EC50 (MOLM-13) | EC50 (NCl-H292) | EC50 (HCT116^−/−) | Stabilization of transcription factors and kinases [1] | Toxic effects [2]
1 | COc1ccc(C2=N[C@@H](c3ccc(Cl)cc3)[C@@H](c3ccc(Cl)cc3)N2C(=O)N2CCNC(=O)C2)c(OC(C)C)c1 [Nutlin 3A] | > 100 µM | 0.7 ± 0.1 µM | > 50 µM | > 50 µM | 9.8 ± 1.2 µM | > 100 µM | 6.6 ± 0.7 µM | 1.4 ± 0.1 µM | 19.2 ± 2.9 µM | – | – | –
2 | N=C(N)NCCC[C@@H]1NC(=O)[C@@H](CCCNC(=N)N)NC(=O)[C@H](CCCCN)NC(=O)[C@@H](N)CCCCNC(=O)CC[C@@H](C(=O)O)NC(=O)[C@@H](CCCNC(=N)N)NC(=O)[C@H](CCCNC(=N)N)NC(=O)[C@@H](CCCCN)NC(=O)[C@H](CCCCN)NC(=O)[C@@H](CCCNC(=N)N)NC(=O)CNC(=O)[C@@H](CCCNC(=N)N)NC1=O [cTAT] (H-KK[dR]R[dR]G[dR]K[dK]R[dR]E-OH; lactam 1-12; N-terminus and C-terminus assumed) | > 100 µM | > 100 µM | > 100 µM | > 100 µM | > 100 µM | > 100 µM | > 100 µM | > 100 µM | > 100 µM | > 100 µM | – | –
3 | I: cyclo(ACICRHDSYCGSGSDGGVCPNLYLLCRRDKDCPG) / II: KK[dR]R[dR]G[dR]K[dK]R[dR][isoGln] (disulfide I:2-I:19, I:4-I:26, I:10-I:32; linker I:30-II:N via X1; lactam II:1-II:C) [Cyclotide 52-2-cTAT] | – | – | – | – | – | – | – | – | – | – | stabilize ATF3, FOXO3a, RUNX3, DYRK2 and HIPK2; also recorded: stabilizes transcription factors p53, FOXO3a, RUNX3, ATF3, and kinases DYRK2 and HIPK2 | No toxic effects were detected
